In ChEMBL document CHEMBL1201862, “PubChem BioAssay data set” (2004):
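In this assay, cells in 96-well plates receive the compound at five concentrations for 48 hours. Endpoints are linearly interpolated between the surrounding concentrations. Here, GI50 denotes the concentration required for 50% inhibition of growth.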 The source made the active and inactive calls. Rule as the data show it: active = GI50 up to about 1.1 µM and inactive = higher.

Legend:
Experiment in all cases: inhibition of tumour cell growth, NCI panel, 48 h
786-0 = test system: 786-0
A498 = test system: A498
HCC 2998 = test system: HCC 2998
HCT-116 = test system: HCT-116
HL-60 = test system: HL-60
HT-29 = test system: HT-29
LOX IMVI = test system: LOX IMVI
M14 = test system: M14
MDA-MB-231 = test system: MDA-MB-231
NCI-H226 = test system: NCI-H226
NCI-H23 = test system: NCI-H23
OVCAR-8 = test system: OVCAR-8
RXF 393 = test system: RXF 393
SK-MEL-28 = test system: SK-MEL-28
SW-620 = test system: SW-620
T47D = test system: T47D
UACC-257 = test system: UACC-257
UACC-62 = test system: UACC-62
SNB-75 = test system: SNB-75
BT-549 = test system: BT-549

Structure (SMILES)	GI50 (786-0)	GI50 (A498)	GI50 (HCC 2998)	GI50 (HCT-116)	GI50 (HL-60)	GI50 (HT-29)	GI50 (LOX IMVI)	GI50 (M14)	GI50 (MDA-MB-231)	GI50 (NCI-H226)	GI50 (NCI-H23)	GI50 (OVCAR-8)	GI50 (RXF 393)	GI50 (SK-MEL-28)	GI50 (SW-620)	GI50 (T47D)	GI50 (UACC-257)	GI50 (UACC-62)	GI50 (SNB-75)	GI50 (BT-549)
CCOC(=O)/C(C(=S)NCc1ccccc1)=C(/N)N1CCCC1	> 100 µM (inactive)	> 100 µM (inactive)	> 100 µM (inactive)	> 100 µM (inactive)	> 100 µM (inactive)	> 100 µM (inactive)	> 100 µM (inactive)	> 100 µM (inactive)	> 100 µM (inactive)	> 100 µM (inactive)	> 100 µM (inactive)	> 100 µM (inactive)	> 100 µM (inactive)	> 100 µM (inactive)	> 100 µM (inactive)	> 100 µM (inactive)	> 100 µM (inactive)	> 100 µM (inactive)	–	–
Cc1c2oc3c(C)cc(F)c(C(=O)NC4C(=O)NC(C(C)C)C(=O)N5CCCC5C(=O)N(C)CC(=O)N(C)C(C(C)C)C(=O)OC4C)c3nc-2c(C(=O)NC2C(=O)NC(C(C)C)C(=O)N3CCCC3C(=O)N(C)CC(=O)N(C)C(C(C)C)C(=O)OC2C)c(N)c1=O (stereo not given)	0.00512 µM (active)	0.161 µM (active)	0.109 µM (active)	0.01 µM (active)	0.00131 µM (active)	0.00586 µM (active)	0.00255 µM (active)	0.0826 µM (active)	0.647 µM (active)	0.0234 µM (active)	0.105 µM (active)	0.221 µM (active)	0.106 µM (active)	0.0263 µM (active)	0.00114 µM (active)	0.101 µM (active)	0.00395 µM (active)	0.0617 µM (active)	0.163 µM (active)	–
CCOC(=O)c1cn2c(n1)sc1cccc(C)c12	> 100 µM (inactive)	–	> 100 µM (inactive)	> 100 µM (inactive)	–	–	> 100 µM (inactive)	> 100 µM (inactive)	> 100 µM (inactive)	> 100 µM (inactive)	> 100 µM (inactive)	> 100 µM (inactive)	> 100 µM (inactive)	–	–	–	> 100 µM (inactive)	> 100 µM (inactive)	> 100 µM (inactive)	> 100 µM (inactive)
CC(=O)O[C@H]1CCC2[C@@H]3CCC4C(=O)c5oncc5C[C@]4(C)C3CC[C@@]21C (stereo not given in full)	> 100 µM (inactive)	21.7 µM (inactive)	> 100 µM (inactive)	> 10 µM (inactive)	> 100 µM (inactive)	> 100 µM (inactive)	28 µM (inactive)	> 100 µM (inactive)	–	> 10 µM (inactive)	> 100 µM (inactive)	> 100 µM (inactive)	> 100 µM (inactive)	> 100 µM (inactive)	> 100 µM (inactive)	–	> 100 µM (inactive)	60.3 µM (inactive)	50.2 µM (inactive)	–
COc1ccc(/C=C2\N=C3NC(=O)C(N4CCOCC4)=C(N)N3C2=O)cc1	53 µM (inactive)	> 100 µM (inactive)	> 100 µM (inactive)	> 100 µM (inactive)	48.9 µM (inactive)	> 100 µM (inactive)	> 100 µM (inactive)	> 100 µM (inactive)	> 100 µM (inactive)	> 100 µM (inactive)	> 100 µM (inactive)	> 100 µM (inactive)	46.7 µM (inactive)	> 100 µM (inactive)	> 100 µM (inactive)	> 100 µM (inactive)	> 100 µM (inactive)	–	24.8 µM (inactive)	–
CN1CCN(Cn2nc(COc3ccccc3Cl)n(/N=C/c3ccc(-c4ccc(Cl)cc4Cl)o3)c2=S)CC1	18.6 µM (inactive)	19.1 µM (inactive)	19.6 µM (inactive)	18.5 µM (inactive)	24.8 µM (inactive)	19.5 µM (inactive)	33.4 µM (inactive)	28.8 µM (inactive)	26.4 µM (inactive)	51.5 µM (inactive)	17.9 µM (inactive)	27 µM (inactive)	17.3 µM (inactive)	60.5 µM (inactive)	16.1 µM (inactive)	19.5 µM (inactive)	34.8 µM (inactive)	–	–	–
N/C(=N\O)N/N=C\c1c2ccccc2c(Cl)c2ccccc12	12.6 µM (inactive)	13.5 µM (inactive)	3.66 µM (inactive)	3.66 µM (inactive)	2.19 µM (inactive)	3.78 µM (inactive)	2.55 µM (inactive)	12.1 µM (inactive)	–	2.13 µM (inactive)	5.04 µM (inactive)	4.08 µM (inactive)	1.22 µM (inactive)	13.5 µM (inactive)	5.22 µM (inactive)	–	1.42 µM (inactive)	1.92 µM (inactive)	12.7 µM (inactive)	–
C/C=C(/C)C(=O)O[C@H]1C[C@@H]2[C@@H](O)c3occ(C)c3C[C@]2(C)[C@@H](C)C1	16.1 µM (inactive)	–	16.6 µM (inactive)	15.2 µM (inactive)	9.93 µM (inactive)	15.6 µM (inactive)	17.5 µM (inactive)	15.6 µM (inactive)	15.5 µM (inactive)	14.2 µM (inactive)	17.8 µM (inactive)	19.2 µM (inactive)	14.4 µM (inactive)	16.3 µM (inactive)	16.2 µM (inactive)	11.6 µM (inactive)	11.1 µM (inactive)	13.4 µM (inactive)	–	–
COc1ccc(/C=C2\NC(=S)N(CN3CCOCC3)C2=O)cc1	> 100 µM (inactive)	26.1 µM (inactive)	–	> 100 µM (inactive)	–	> 100 µM (inactive)	> 100 µM (inactive)	> 100 µM (inactive)	> 100 µM (inactive)	> 100 µM (inactive)	> 100 µM (inactive)	> 100 µM (inactive)	–	> 100 µM (inactive)	> 100 µM (inactive)	–	> 100 µM (inactive)	> 100 µM (inactive)	> 100 µM (inactive)	–
C=CCN1C(=O)/C(=C\c2cc(C(C)(C)C)c(O)c(C(C)(C)C)c2)NC1=S	20.8 µM (inactive)	25.2 µM (inactive)	–	12.7 µM (inactive)	0.239 µM (active)	17.3 µM (inactive)	16.4 µM (inactive)	26 µM (inactive)	15.9 µM (inactive)	29.3 µM (inactive)	21.2 µM (inactive)	33.9 µM (inactive)	–	30.6 µM (inactive)	20.6 µM (inactive)	–	15.6 µM (inactive)	15.8 µM (inactive)	–	33.9 µM (inactive)
Cn1/c(=N\c2ccccc2[N+](=O)[O-])sc2ccccc21	30.7 µM (inactive)	54.8 µM (inactive)	30.3 µM (inactive)	72.8 µM (inactive)	> 100 µM (inactive)	> 100 µM (inactive)	> 100 µM (inactive)	–	6.1 µM (inactive)	34.9 µM (inactive)	26 µM (inactive)	49.9 µM (inactive)	30.1 µM (inactive)	89.7 µM (inactive)	> 100 µM (inactive)	3.95 µM (inactive)	29.9 µM (inactive)	30.5 µM (inactive)	18.4 µM (inactive)	–
COc1ccc(NC(=O)/C(O)=C/C(=O)c2ccccc2)cc1	> 10 µM (inactive)	–	> 10 µM (inactive)	–	> 10 µM (inactive)	> 10 µM (inactive)	1.96 µM (inactive)	> 10 µM (inactive)	> 10 µM (inactive)	–	> 10 µM (inactive)	> 10 µM (inactive)	> 10 µM (inactive)	> 10 µM (inactive)	> 10 µM (inactive)	> 10 µM (inactive)	> 10 µM (inactive)	> 10 µM (inactive)	> 10 µM (inactive)	–
CC(C)(C)c1ccc2c(c1)S(=O)(=O)Nc1ccccc1NS(=O)(=O)c1cc(C(C)(C)C)ccc1OCCOCCOCCO2	> 100 µM (inactive)	52.5 µM (inactive)	> 100 µM (inactive)	> 100 µM (inactive)	> 100 µM (inactive)	> 100 µM (inactive)	> 100 µM (inactive)	> 100 µM (inactive)	–	> 100 µM (inactive)	> 100 µM (inactive)	70 µM (inactive)	45.5 µM (inactive)	> 100 µM (inactive)	> 100 µM (inactive)	–	> 100 µM (inactive)	64.6 µM (inactive)	39.2 µM (inactive)	–
CCN(CC)C(=O)c1c(Cl)cc(N(CC)CC)oc1=O	> 100 µM (inactive)	> 100 µM (inactive)	> 100 µM (inactive)	> 100 µM (inactive)	> 100 µM (inactive)	> 100 µM (inactive)	> 100 µM (inactive)	> 100 µM (inactive)	–	> 100 µM (inactive)	> 100 µM (inactive)	> 100 µM (inactive)	> 100 µM (inactive)	> 100 µM (inactive)	> 100 µM (inactive)	–	> 100 µM (inactive)	> 100 µM (inactive)	> 100 µM (inactive)	–
COc1cc(O)c2c(c1)C(=O)c1cc3c(c(O)c1C2=O)C(OC1OC(C)C(OC)C(O)C1OC)C(OC)C(C)(O)C3=O (stereo not given)	5.28 µM (inactive)	5.53 µM (inactive)	5.02 µM (inactive)	2.81 µM (inactive)	2.79 µM (inactive)	3.37 µM (inactive)	2.7 µM (inactive)	3.02 µM (inactive)	4.44 µM (inactive)	2.59 µM (inactive)	5.86 µM (inactive)	2.36 µM (inactive)	–	7.01 µM (inactive)	3.6 µM (inactive)	–	4.28 µM (inactive)	–	4.15 µM (inactive)	14.5 µM (inactive)
COc1c(Br)cc(/C=C(\C#N)c2ccccn2)cc1Br	4.09 µM (inactive)	< 0.01 µM (active)	> 100 µM (inactive)	30.3 µM (inactive)	> 100 µM (inactive)	> 100 µM (inactive)	–	> 100 µM (inactive)	–	48.4 µM (inactive)	41.7 µM (inactive)	34.5 µM (inactive)	22.8 µM (inactive)	> 100 µM (inactive)	> 100 µM (inactive)	–	> 100 µM (inactive)	10.8 µM (inactive)	0.891 µM (active)	22.8 µM (inactive)
